Measured values published in US9809583B2 (priority 2014, dated 2017).
Like-named read-outs stand apart in the source and are kept apart here.

Target: androgen receptor (hAR) (Homo sapiens (Human), UniProt P10275)
Assay: Test of transcriptional activity (hAR / ARE-Luc dual-luciferase assay in CHO cells)
Assay type: cell-based
Settings: CHO cells with hAR and ARE-Luc, 24 hours, 10 nM DHT = 100%
Method: In order to examine the transcriptional activity of the agonists of the present invention, the following in-vitro experiment was performed. CHO (Chinese hamster ovary) cell line (ATCC, #CCL-61) was seeded in a 96-well plate at a density of 1.5×10^4 cells/well, and cultured for 24 hours. Then, a plasmid hAR and plasmid ARE-Luc-mixed medium was added thereto. The transfected cell line was treated with 0.1˜10,000 nM of SARM derivatives, and then allowed to react for 24 hours.

[1] = read-out: EC50 [nM] (mean ± SE)

Chain of androgen receptor (hAR) (P10275 whole entry): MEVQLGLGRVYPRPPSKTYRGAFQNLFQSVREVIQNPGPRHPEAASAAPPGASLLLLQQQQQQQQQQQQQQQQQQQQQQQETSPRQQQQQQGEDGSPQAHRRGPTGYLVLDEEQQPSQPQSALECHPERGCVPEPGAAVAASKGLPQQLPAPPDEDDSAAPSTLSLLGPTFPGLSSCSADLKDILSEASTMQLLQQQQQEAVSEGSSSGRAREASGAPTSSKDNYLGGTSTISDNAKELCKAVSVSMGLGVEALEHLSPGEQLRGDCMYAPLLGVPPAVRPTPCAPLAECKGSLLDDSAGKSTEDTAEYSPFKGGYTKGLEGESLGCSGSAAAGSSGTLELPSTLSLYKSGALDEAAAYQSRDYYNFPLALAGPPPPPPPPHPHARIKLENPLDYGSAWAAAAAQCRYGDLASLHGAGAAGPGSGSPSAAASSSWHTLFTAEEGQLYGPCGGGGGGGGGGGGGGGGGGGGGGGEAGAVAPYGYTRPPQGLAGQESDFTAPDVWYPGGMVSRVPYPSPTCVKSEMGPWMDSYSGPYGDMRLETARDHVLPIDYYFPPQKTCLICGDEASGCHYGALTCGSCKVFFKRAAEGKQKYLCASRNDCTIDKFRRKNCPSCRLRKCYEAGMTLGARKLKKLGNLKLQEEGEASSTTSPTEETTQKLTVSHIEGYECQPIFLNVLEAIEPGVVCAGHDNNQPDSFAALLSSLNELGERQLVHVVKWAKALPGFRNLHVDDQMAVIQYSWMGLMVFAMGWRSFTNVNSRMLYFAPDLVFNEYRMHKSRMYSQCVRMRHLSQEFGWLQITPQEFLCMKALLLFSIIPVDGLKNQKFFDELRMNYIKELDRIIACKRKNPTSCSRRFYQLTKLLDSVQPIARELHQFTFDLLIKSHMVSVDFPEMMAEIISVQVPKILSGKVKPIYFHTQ

Row | Compound | EC50 (EC50 [nM] (mean ± SE)) | EC50 [1] [nM]
1 | COC(=O)Nc1ccc(NC(=O)[C@@H]2CN(c3ccc(C#N)c(C(F)(F)F)c3)[C@@H](C(F)(F)F)O2)cc1 [Example 157, methyl(4-((2R,5S)-3-(4-cyano-3-(trifluoromethyl)phenyl)-2-(trifluoromethyl)oxazolidine-5-carboxamido)phenyl)carbamate] | 231 | –
2 | N#Cc1ccc(N2C[C@@H](COc3ccc(/C=N/O)cc3[N+](=O)[O-])O[C@@H]2C(F)(F)F)cc1C(F)(F)F [Example 98, 4-((2R,5S)-5-((4-((E)-(hydroxyimino)methyl)-2-nitrophenoxy)methyl)-2-(trifluoromethyl)oxazolidin-3-yl)-2-(trifluoromethyl)benzonitrile] | 2.91 | –
3 | N#Cc1ccc(N2C[C@@H](COc3ccnc(Cl)c3)O[C@@H]2C(F)(F)F)cc1C(F)(F)F [Example 68, 4-((2R,5S)-5-(((2-chloropyridin-4-yl)oxy)methyl)-2-(trifluoromethyl)oxazolidin-3-yl)-2-(trifluoromethyl)benzonitrile] | 6.06 | –
4 | N#CCC(=O)Nc1ccc(NC(=O)[C@@H]2CN(c3ccc(C#N)c(C(F)(F)F)c3)[C@@H](C(F)(F)F)O2)cc1 [Example 162, (2R,5S)-3-(4-cyano-3-(trifluoromethyl)phenyl)-N-(4-(2-cyanoacetamido)phenyl)-2-(trifluoromethyl)oxazolidine-5-carboxamide] | 149 | –
5 | N#Cc1ccc(OC[C@@H]2CN(c3ccc(C#N)c(C(F)(F)F)c3)[C@@H]([C@@H](O)C(F)(F)F)O2)cc1 [Example 48, 4-((2R,5S)-5-((4-cyanophenoxy)methyl)-2-((R)-2,2,2-trifluoro-1-hydroxyethyl)oxazolidin-3-yl)-2-(trifluoromethyl)benzonitrile] | 1520 | –
6 | Cc1cc(N2C[C@@H](COc3ccc(C#N)cc3)O[C@H]2C(F)(F)F)ccc1[N+](=O)[O-] [Example 82, 4-(((2S,5S)-3-(3-methyl-4-nitrophenyl)-2-(trifluoromethyl)oxazolidin-5-yl)methoxy)benzonitrile] | – | 21.1
7 | N#Cc1ccc(N2C[C@@H](C(=O)Nc3ccc(N)cc3Cl)O[C@@H]2C(F)(F)F)cc1C(F)(F)F [Example 152, (2R,5S)-N-(4-amino-2-chlorophenyl)-3-(4-cyano-3-(trifluoromethyl)phenyl)-2-(trifluoromethyl)oxazolidine-5-carboxamide] | 521 | –
8 | (2R,5S)-N-(4-cyano-2-(trifluoromethyl)phenyl)-3-(4-cyano-3-(trifluoromethyl)phenyl)-2-(trifluoromethyl)oxazolidine-5-carboxamide [Example 128] | – | 11.1
9 | (2R,5S)-N-(4-acetamidophenyl)-3-(3-chloro-4-cyanophenyl)-2-(trifluoromethyl)oxazolidine-5-carboxamide [Example 118] | – | 30.4
10 | N#Cc1ccc(N2C[C@@H](C(=O)Nc3ccc(NC(=O)CO)cc3)O[C@@H]2C(F)(F)F)cc1C(F)(F)F [Example 160, (2R,5S)-3-(4-cyano-3-(trifluoromethyl)phenyl)-N-(4-(2-hydroxyacetamido)phenyl)-2-(trifluoromethyl)oxazolidine-5-carboxamide] | 105 | –
11 | N#Cc1ccc(N2C[C@@H](COc3ccc(N)cc3)O[C@@H]2C(F)(F)F)cc1C(F)(F)F [Example 14, 4-((2R,5S)-5-((4-aminophenoxy)methyl)-2-(trifluoromethyl)oxazolidin-3-yl)-2-(trifluoromethyl)benzonitrile] | 111 | –
12 | CC(=O)Nc1ccc(NC(=O)[C@@H]2CN(c3ccc(C#N)c(C(F)(F)F)c3)[C@@H](C(F)(F)F)O2)c(F)c1 [Example 106, (2R,5S)-N-(4-acetamido-2-fluorophenyl)-3-(4-cyano-3-(trifluoromethyl)phenyl)-2-(trifluoromethyl)oxazolidine-5-carboxamide] | 154 | –
13 | Cc1cc(N2C[C@@H](COc3ccc(C#N)cc3)O[C@@H]2C(F)(F)F)ccc1[N+](=O)[O-] [Example 53, 4-(((2R,5S)-3-(3-methyl-4-nitrophenyl)-2-(trifluoromethyl)oxazolidin-5-yl)methoxy)benzonitrile] | – | 2.5 ± 0.7
14 | CCC(=O)Nc1ccc(NC(=O)[C@@H]2CN(c3ccc(C#N)c(C(F)(F)F)c3)[C@@H](C(F)(F)F)O2)cc1 [Example 158, (2R,5S)-3-(4-cyano-3-(trifluoromethyl)phenyl)-N-(4-propionamidophenyl)-2-(trifluoromethyl)oxazolidine-5-carboxamide] | 12.5 | –
15 | N#Cc1ccc(N2C[C@@H](C(=O)Nc3cccnc3)O[C@@H]2C(F)(F)F)cc1C(F)(F)F [Example 110, (2R,5S)-3-(4-cyano-3-(trifluoromethyl)phenyl)-N-(pyridin-3-yl)-2-(trifluoromethyl)oxazolidine-5-carboxamide] | 80 | –
16 | N#Cc1ccc(OC[C@@H]2CN(c3ccc(C#N)c(Cl)c3)[C@H](C(F)(F)F)O2)cc1 [Example 83, 2-chloro-4-((2S,5S)-5-((4-cyanophenoxy)methyl)-2-(trifluoromethyl)oxazolidin-3-yl)benzonitrile] | 29.6 | –
17 | (2R,5S)-N-(4-acetamidophenyl)-3-(3-methyl-4-nitrophenyl)-2-(trifluoromethyl)oxazolidine-5-carboxamide [Example 112] | – | 10.1

Row | Compound | EC50 (EC50 [nM] (mean ± SE)) | EC50 [1] [nM]
18 | N#Cc1ccc(NC(=O)[C@@H]2CN(c3ccc(C#N)c(C(F)(F)F)c3)[C@@H](C(F)(F)F)O2)cc1 [Example 138, (2R,5S)-3-(4-cyano-3-(trifluoromethyl)phenyl)-N-(4-cyanophenyl)-2-(trifluoromethyl)oxazolidine-5-carboxamide] | 17.3 | –
19 | (2R,5S)-3-(4-cyano-3-(trifluoromethyl)phenyl)-N-(4-cyano-3-methoxyphenyl)-2-(trifluoromethyl)oxazolidine-5-carboxamide [Example 127] | – | 183
20 | (2R,5S)-N-(3-chloro-4-cyanophenyl)-3-(4-cyano-3-(trifluoromethyl)phenyl)-2-(trifluoromethyl)oxazolidine-5-carboxamide [Example 134] | – | 4.96
21 | N#Cc1ccc(OC[C@@H]2CN(c3ccc([N+](=O)[O-])c(C(F)(F)F)c3)[C@@H](C(F)(F)F)O2)cc1 [Example 64, 4-(((2R,5S)-3-(4-nitro-3-(trifluoromethyl)phenyl)-2-(trifluoromethyl)oxazolidin-5-yl)methoxy)benzonitrile] | – | 34
22 | N#Cc1cccc(OC[C@@H]2CN(c3ccc(C#N)c(C(F)(F)F)c3)[C@@H](C(F)(F)F)O2)c1 [Example 46, 4-((2R,5S)-5-((3-cyanophenoxy)methyl)-2-(trifluoromethyl)oxazolidin-3-yl)-2-(trifluoromethyl)benzonitrile] | 31.5 | –
23 | N#Cc1ccc(N2C[C@@H](C(=O)Nc3ccc([N+](=O)[O-])cc3Cl)O[C@@H]2C(F)(F)F)cc1C(F)(F)F [Example 151, (2R,5S)-N-(2-chloro-4-nitrophenyl)-3-(4-cyano-3-(trifluoromethyl)phenyl)-2-(trifluoromethyl)oxazolidine-5-carboxamide] | 43.7 | –
24 | (2R,5S)-N-(6-cyanopyridin-3-yl)-3-(3-methyl-4-nitrophenyl)-2-(trifluoromethyl)oxazolidine-5-carboxamide [Example 116] | – | 4.32
25 | N#Cc1ccc(N2C[C@@H](COc3ccc(N4CCOC4=O)cc3)O[C@@H]2C(F)(F)F)cc1C(F)(F)F [Example 38, 4-((2R,5S)-5-((4-(2-oxooxazolidin-3-yl)phenoxy)methyl)-2-(trifluoromethyl)oxazolidin-3-yl)-2-(trifluoromethyl)benzonitrile] | 165 | –
26 | N#Cc1ccc(N2C[C@@H](COc3ccc(CO)cc3)O[C@@H]2C(F)(F)F)cc1C(F)(F)F [Example 67, 4-((2R,5S)-5-((4-(hydroxymethyl)phenoxy)methyl)-2-(trifluoromethyl)oxazolidin-3-yl)-2-(trifluoromethyl)benzonitrile] | 3.93 | –
27 | Cc1c(N2C[C@@H](COc3ccncc3)O[C@@H]2C(F)(F)F)ccc(C#N)c1Cl [Example 76, 2-chloro-3-methyl-4-((2R,5S)-5-((pyridin-4-yloxy)methyl)-2-(trifluoromethyl)oxazolidin-3-yl)benzonitrile] | 21.8 | –
28 | (2R,5S)-3-(3-chloro-4-nitrophenyl)-N-(6-cyanopyridin-3-yl)-2-(trifluoromethyl)oxazolidine-5-carboxamide [Example 125] | – | 11.2
29 | N#Cc1ccc(N2C[C@@H](C(=O)N3CCC(C#N)CC3)O[C@@H]2C(F)(F)F)cc1C(F)(F)F [Example 167] | 44 | –
30 | N#Cc1ccc(OC[C@@H]2CN(c3ccc(Cl)c(Cl)c3)[C@@H](C(F)(F)F)O2)cc1 [Example 63, 4-(((2R,5S)-3-(3,4-dichlorophenyl)-2-(trifluoromethyl)oxazolidin-5-yl)methoxy)benzonitrile] | – | 36.3
31 | N#Cc1ccc(N2C[C@@H](COc3ccc(NC(=O)CN)cc3)O[C@@H]2C(F)(F)F)cc1C(F)(F)F [Example 50, 2-amino-N-(4-(((2R,5S)-3-(4-cyano-3-(trifluoromethyl)phenyl)-2-(trifluoromethyl)oxazolidin-5-yl)methoxy)phenyl)acetamide 2,2,2-trifluoroacetate] | 15.6 | –
32 | N#Cc1ccc(N2C[C@@H](COc3ccc(-c4nnco4)cc3)O[C@@H]2C(F)(F)F)cc1C(F)(F)F [Example 18, 4-((2R,5S)-5-((4-(1,3,4-oxadiazol-2-yl)phenoxy)methyl)-2-(trifluoromethyl)oxazolidin-3-yl)-2-(trifluoromethyl)benzonitrile] | 18.6 | –
33 | N#Cc1ccc(N2C[C@@H](C(=O)Nc3ccc(O)cc3)O[C@@H]2C(F)(F)F)cc1C(F)(F)F [Example 148, (2R,5S)-3-(4-cyano-3-(trifluoromethyl)phenyl)-N-(4-hydroxyphenyl)-2-(trifluoromethyl)oxazolidine-5-carboxamide] | 13.5 | –
